Source: publication PMC5871776, “Opn5L1 is a retinal receptor that behaves as a reverse and self-regenerating photoreceptor” (Nature Communications, 2018)
Where a chain is given by its changes, count along the chain named. pEC50: −log10 of the molar value.

Columns and labels:
Opn5L1NC [1] = molecular target: T1, Opn5L1NC (Gallus gallus, UniProt B3XZF4, E159K/Q174K, form not given); assay: LC-MS of tryptic peptide with retinal oxime at Cys188; type: binding; conditions: covalent (light-induced thio-adduct at Cys188); hydroxylamine, irradiation >500 nm
T1 construct: gene cOpn5L1; HEK293T, purified in dodecyl maltoside
T1 sequence (B3XZF4 20-310 E159K/Q174K limits assumed): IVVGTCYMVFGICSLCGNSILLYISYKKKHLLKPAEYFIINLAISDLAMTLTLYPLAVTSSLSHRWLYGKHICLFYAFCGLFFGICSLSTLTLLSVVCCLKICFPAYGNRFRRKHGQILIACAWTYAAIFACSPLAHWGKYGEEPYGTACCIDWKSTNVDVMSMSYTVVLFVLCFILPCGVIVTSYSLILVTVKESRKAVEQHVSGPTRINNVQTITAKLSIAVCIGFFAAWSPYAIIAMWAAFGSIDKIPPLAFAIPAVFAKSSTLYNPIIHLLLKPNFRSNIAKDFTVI

Opn5L1NC [2] = molecular target: T2, Opn5L1NC (Gallus gallus, UniProt B3XZF4, C170T, form not given); assay: absorption spectrum of purified pigment and HPLC of extracted retinal; type: binding; conditions: covalent (retinylidene Schiff base); retinal 5 μM added to the cell culture; pH 7.0, 10 °C
T2 construct: gene cOpn5L1; HEK293T, purified in dodecyl maltoside
T2 sequence (B3XZF4 20-310 C170T limits assumed): T1 sequence (B3XZF4 20-310 E159K/Q174K limits assumed) with K140E, C151T, K155Q

[3] = molecular target: T3, Opn5L1 bearing native N- and C- termini (Gallus gallus, UniProt B3XZF4, C170T); assay: as above; type: binding; conditions: covalent (retinylidene Schiff base)
T3 construct: gene cOpn5L1; HEK293T, purified
T3 sequence (B3XZF4 1-441 C170T): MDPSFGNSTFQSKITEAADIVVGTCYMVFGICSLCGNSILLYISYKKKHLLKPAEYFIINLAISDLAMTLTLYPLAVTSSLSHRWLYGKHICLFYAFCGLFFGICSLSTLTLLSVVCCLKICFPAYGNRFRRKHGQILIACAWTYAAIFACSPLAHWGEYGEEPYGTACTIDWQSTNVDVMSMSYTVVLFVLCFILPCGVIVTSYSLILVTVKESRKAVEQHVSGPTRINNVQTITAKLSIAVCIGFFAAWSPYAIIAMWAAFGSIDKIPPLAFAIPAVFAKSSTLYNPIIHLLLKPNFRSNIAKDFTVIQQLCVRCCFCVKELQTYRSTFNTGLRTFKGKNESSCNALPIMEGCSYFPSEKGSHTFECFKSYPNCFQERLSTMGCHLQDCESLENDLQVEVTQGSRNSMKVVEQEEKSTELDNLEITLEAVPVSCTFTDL

[4] = molecular target: T4, Opn5L1 bearing native N- and C- termini (Gallus gallus, UniProt B3XZF4); assay: as above; type: binding; conditions: covalent (retinylidene Schiff base)
T4 construct: gene cOpn5L1; HEK293T, purified
T4 sequence (B3XZF4 1-441): T3 sequence (B3XZF4 1-441 C170T) with T170C

Opn5L1NC [5] = molecular target: T5, Opn5L1NC (Gallus gallus, UniProt B3XZF4); assay: as above; type: binding; conditions: covalent (retinylidene Schiff base); 10 μM retinal, 4 °C, 8 h, dark; pH 7.0
T5 construct: gene cOpn5L1; HEK293T, purified in dodecyl maltoside
T5 sequence (B3XZF4 20-310 limits assumed): T1 sequence (B3XZF4 20-310 E159K/Q174K limits assumed) with K140E, K155Q

Opn5L1N = molecular target: T6, Opn5L1N (Gallus gallus, UniProt B3XZF4); assay: […]GTPgammaS filter binding assay of Gi activation; type: biochemical; conditions: agonist; membrane fraction, 0.6 μM Gi, dark, pH 7.0, 25 °C; covalent (retinylidene Schiff base)
T6 construct: gene cOpn5L1; HEK293T membranes
T6 sequence (B3XZF4 20-441 limits assumed): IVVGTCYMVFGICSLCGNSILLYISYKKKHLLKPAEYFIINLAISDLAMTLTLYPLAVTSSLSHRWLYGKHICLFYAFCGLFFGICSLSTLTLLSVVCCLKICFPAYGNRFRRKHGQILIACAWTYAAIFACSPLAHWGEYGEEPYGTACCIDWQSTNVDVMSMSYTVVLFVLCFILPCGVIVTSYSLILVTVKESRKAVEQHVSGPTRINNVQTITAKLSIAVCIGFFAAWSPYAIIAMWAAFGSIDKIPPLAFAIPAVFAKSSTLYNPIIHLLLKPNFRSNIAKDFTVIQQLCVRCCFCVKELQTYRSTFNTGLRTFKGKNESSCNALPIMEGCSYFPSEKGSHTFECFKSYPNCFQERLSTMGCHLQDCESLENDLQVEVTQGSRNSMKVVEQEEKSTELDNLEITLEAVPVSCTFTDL

CC1=C(/C=C/C(C)=C/C=C/C(C)=C/C=O)C(C)(C)CCC1 [all-trans-retinal]
LC-MS of tryptic peptide with retinal oxime at Cys188 (Opn5L1NC [1]): Light increased the amount of peptide with retinal oxime at the second cysteine | absorption spectrum of purified pigment and HPLC of extracted retinal (Opn5L1NC [2]): the C188T mutant of Opn5L1NC showed an absorption maximum similar to that of WT | absorption spectrum of purified pigment and HPLC of extracted retinal [3]: verified the function of Cys188 in the mutant Opn5L1 bearing native N- and C- termini | absorption spectrum of purified pigment and HPLC of extracted retinal [4]: Opn5L1 bearing native N- and C- termini showed molecular characteristics indistinguishable | absorption spectrum of purified pigment and HPLC of extracted retinal (Opn5L1NC [5]): we concluded that Opn5L1NC directly incorporates all-trans-retinal and not 11-cis-retinal | pEC50 (Opn5L1N): 6.21
